According to PubChem BioAssay (NCI):
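The compound was tested at five concentrations on cells cultured in 96-well plates, with a 48-hour exposure period. GI50 = concentration required for 50% inhibition of growth. Definition used: TGI = concentration required for complete inhibition of growth.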

How the values were obtained:
Test in all cases: growth of human tumour cells (NCI), 48 h
786-0 renal = system: 786-0 renal
A498 renal = system: A498 renal
A549 NSCLC = system: A549 NSCLC
ACHN renal = system: ACHN renal
BT-549 breast = system: BT-549 breast
CAKI-1 renal = system: CAKI-1 renal
CCRF-CEM leukemia = system: CCRF-CEM leukemia
COLO 205 colon = system: COLO 205 colon
DU-145 prostate = system: DU-145 prostate
EKVX NSCLC = system: EKVX NSCLC
HCC-2998 colon = system: HCC-2998 colon
HCT-116 colon = system: HCT-116 colon
HCT-15 colon = system: HCT-15 colon
HL-60(TB) leukemia = system: HL-60(TB) leukemia
HOP-92 NSCLC = system: HOP-92 NSCLC
HS 578T breast = system: HS 578T breast
HT29 colon = system: HT29 colon
IGROV1 ovarian = system: IGROV1 ovarian
K-562 leukemia = system: K-562 leukemia
KM12 colon = system: KM12 colon
LOX IMVI melanoma = system: LOX IMVI melanoma
M14 melanoma = system: M14 melanoma
MALME-3M melanoma = system: MALME-3M melanoma
MCF7 breast = system: MCF7 breast
MDA-MB-231 breast = system: MDA-MB-231 breast
MDA-MB-435 = system: MDA-MB-435
MOLT-4 leukemia = system: MOLT-4 leukemia
NCI-H226 lung = system: NCI-H226 lung
NCI-H23 lung = system: NCI-H23 lung
NCI-H460 lung = system: NCI-H460 lung
NCI-H522 lung = system: NCI-H522 lung
NCI/ADR-RES ovarian = system: NCI/ADR-RES ovarian
OVCAR-3 ovarian = system: OVCAR-3 ovarian
OVCAR-4 ovarian = system: OVCAR-4 ovarian
OVCAR-5 ovarian = system: OVCAR-5 ovarian
OVCAR-8 ovarian = system: OVCAR-8 ovarian
PC-3 prostate = system: PC-3 prostate
RPMI-8226 leukemia = system: RPMI-8226 leukemia
RXF 393 renal = system: RXF 393 renal
SF-268 CNS = system: SF-268 CNS
SF-295 CNS = system: SF-295 CNS
SF-539 CNS = system: SF-539 CNS
SK-MEL-2 melanoma = system: SK-MEL-2 melanoma
SK-MEL-28 melanoma = system: SK-MEL-28 melanoma
SK-MEL-5 melanoma = system: SK-MEL-5 melanoma
SK-OV-3 ovarian = system: SK-OV-3 ovarian
SN12C renal = system: SN12C renal
SNB-19 CNS = system: SNB-19 CNS
SNB-75 CNS = system: SNB-75 CNS
SR leukemia = system: SR leukemia
SW-620 colon = system: SW-620 colon
T-47D breast = system: T-47D breast
TK-10 renal = system: TK-10 renal
U251 CNS = system: U251 CNS
UACC-257 melanoma = system: UACC-257 melanoma
UACC-62 melanoma = system: UACC-62 melanoma
UO-31 renal = system: UO-31 renal

`Cc1c(Cl)c(C)c(Cc2c(C)c(Cl)c(C)c(Cl)c2O)c(O)c1Cl` was tested, and the GI50 (786-0 renal) was 2.98 µM, the TGI (786-0 renal) was 9.84 µM and the GI50 (A498 renal) was 2.04 µM. For the same compound, the TGI (A498 renal) was 6.35 µM, the GI50 (A549 NSCLC) was 4.07 µM and the TGI (A549 NSCLC) was 18.6 µM. For the same compound, the GI50 (ACHN renal) was 2.32 µM, the TGI (ACHN renal) was 6.88 µM and the GI50 (BT-549 breast) was 2.37 µM. For the same compound, the TGI (BT-549 breast) was 8.33 µM, the GI50 (CAKI-1 renal) was 2.3 µM and the TGI (CAKI-1 renal) was 9.77 µM. It also gave a GI50 (CCRF-CEM leukemia) of 2.57 µM, a TGI (CCRF-CEM leukemia) of 12.6 µM and a GI50 (COLO 205 colon) of 3.04 µM. It also gave a TGI (COLO 205 colon) of 9.24 µM, a GI50 (DU-145 prostate) of 4.83 µM and a TGI (DU-145 prostate) of 16.6 µM. The GI50 (EKVX NSCLC) was 2.64 µM, the TGI (EKVX NSCLC) was 9.25 µM and the GI50 (HCC-2998 colon) was 3.8 µM. It also gave a TGI (HCC-2998 colon) of 11.6 µM, a GI50 (HCT-116 colon) of 2.42 µM and a TGI (HCT-116 colon) of 10.5 µM. For the same compound, the GI50 (HCT-15 colon) was 2.32 µM, the TGI (HCT-15 colon) was 10.7 µM and the GI50 (HL-60(TB) leukemia) was 2.92 µM. The TGI (HL-60(TB) leukemia) was 11.2 µM, the GI50 (HOP-92 NSCLC) was 1.16 µM and the TGI (HOP-92 NSCLC) was 4.74 µM. The GI50 (HS 578T breast) was 2.71 µM, the TGI (HS 578T breast) was 9.55 µM and the GI50 (HT29 colon) was 3.84 µM. For the same compound, the TGI (HT29 colon) was 12.7 µM, the GI50 (IGROV1 ovarian) was 4.07 µM and the TGI (IGROV1 ovarian) was 19 µM. It also gave a GI50 (K-562 leukemia) of 2.21 µM, a TGI (K-562 leukemia) of 14.1 µM and a GI50 (KM12 colon) of 3.34 µM. It also gave a TGI (KM12 colon) of 11.4 µM, a GI50 (LOX IMVI melanoma) of 3.18 µM and a TGI (LOX IMVI melanoma) of 10.5 µM. The GI50 (M14 melanoma) was 3.53 µM, the TGI (M14 melanoma) was 14.4 µM and the GI50 (MALME-3M melanoma) was 2.33 µM. The TGI (MALME-3M melanoma) was 5.97 µM, the GI50 (MCF7 breast) was 2.14 µM and the TGI (MCF7 breast) was 8.37 µM. For the same compound, the GI50 (MDA-MB-231 breast) was 2.38 µM, the TGI (MDA-MB-231 breast) was 7.2 µM and the GI50 (MDA-MB-435) was 3.13 µM. The TGI (MDA-MB-435) was 11.1 µM, the GI50 (MOLT-4 leukemia) was 3.24 µM and the TGI (MOLT-4 leukemia) was 13.4 µM. For the same compound, the GI50 (NCI-H226 lung) was 2.52 µM, the TGI (NCI-H226 lung) was 10.7 µM and the GI50 (NCI-H23 lung) was 2.46 µM. It also gave a TGI (NCI-H23 lung) of 8.79 µM, a GI50 (NCI-H460 lung) of 2.43 µM and a TGI (NCI-H460 lung) of 10.2 µM. The GI50 (NCI-H522 lung) was 1.84 µM, the TGI (NCI-H522 lung) was 11.2 µM and the GI50 (NCI/ADR-RES ovarian) was 3.09 µM. The TGI (NCI/ADR-RES ovarian) was 10.2 µM, the GI50 (OVCAR-3 ovarian) was 3.28 µM and the TGI (OVCAR-3 ovarian) was 11.2 µM. It also gave a GI50 (OVCAR-4 ovarian) of 2.99 µM, a TGI (OVCAR-4 ovarian) of 9.97 µM and a GI50 (OVCAR-5 ovarian) of 3.67 µM. For the same compound, the TGI (OVCAR-5 ovarian) was 14.4 µM, the GI50 (OVCAR-8 ovarian) was 3.73 µM and the TGI (OVCAR-8 ovarian) was 21.6 µM. It also gave a GI50 (PC-3 prostate) of 1.99 µM, a TGI (PC-3 prostate) of 11.8 µM and a GI50 (RPMI-8226 leukemia) of 1.18 µM. For the same compound, the TGI (RPMI-8226 leukemia) was 6.66 µM, the GI50 (RXF 393 renal) was 2 µM and the TGI (RXF 393 renal) was 6.89 µM. The GI50 (SF-268 CNS) was 3.4 µM, the TGI (SF-268 CNS) was 15.8 µM and the GI50 (SF-295 CNS) was 2.05 µM. It also gave a TGI (SF-295 CNS) of 5.08 µM, a GI50 (SF-539 CNS) of 3.01 µM and a TGI (SF-539 CNS) of 11.4 µM. The GI50 (SK-MEL-2 melanoma) was 2.85 µM, the TGI (SK-MEL-2 melanoma) was 9.73 µM and the GI50 (SK-MEL-28 melanoma) was 3.14 µM. For the same compound, the TGI (SK-MEL-28 melanoma) was 14 µM, the GI50 (SK-MEL-5 melanoma) was 1.28 µM and the TGI (SK-MEL-5 melanoma) was 3.33 µM. For the same compound, the GI50 (SK-OV-3 ovarian) was 2.68 µM, the TGI (SK-OV-3 ovarian) was 9.46 µM and the GI50 (SN12C renal) was 2.46 µM. The TGI (SN12C renal) was 11.8 µM, the GI50 (SNB-19 CNS) was 3.15 µM and the TGI (SNB-19 CNS) was 13.8 µM. The GI50 (SNB-75 CNS) was 2.27 µM, the TGI (SNB-75 CNS) was 7.93 µM and the GI50 (SR leukemia) was 3.4 µM. The TGI (SR leukemia) was 12.4 µM, the GI50 (SW-620 colon) was 3.14 µM and the TGI (SW-620 colon) was 13.5 µM. The GI50 (T-47D breast) was 2.11 µM, the TGI (T-47D breast) was 8.76 µM and the GI50 (TK-10 renal) was 3.79 µM. For the same compound, the TGI (TK-10 renal) was 17.2 µM, the GI50 (U251 CNS) was 3.1 µM and the TGI (U251 CNS) was 10.9 µM. For the same compound, the GI50 (UACC-257 melanoma) was 3.52 µM, the TGI (UACC-257 melanoma) was 14.9 µM and the GI50 (UACC-62 melanoma) was 1.81 µM. The TGI (UACC-62 melanoma) was 6.84 µM, the GI50 (UO-31 renal) was 3.09 µM and the TGI (UO-31 renal) was 11.6 µM.
